The results in this text go back to paper PMC7648750, “In vitro and in vivo BNCT investigations using a carborane containing sulfonamide targeting CAIX epitopes on malignant pleural mesothelioma and breast cancer cells” (Scientific Reports, 2020).

One series relates to AB22 mesothelioma tumour. As to the kind of experiment: Tumour growth by MRI in AB22 mesothelioma tumour bearing mice (CA-SF with or without BNCT). It is filed as in vivo, Balb/c mice. Conditions: three i.v. doses 37.5 mg/kg of boron at day 0, 2, 6, followed 25 days. As for the experimental part: CA-SF treatment on mesothelioma bearing mice, were performed in the thermal column of the TRIGA Mark II reactor at Pavia University (Italy) using the same protocol reported in reference^35. The irradiation facility was previously designed for TAOrMINA treatment developed to treat multiple liver metastases with BNCT. The chamber used to perform animal irradiation has a cross section of 40 × 20 cm^2, a length of 1 m and it starts at about 1.3 m from the center of the reactor core. The animal irradiation position has been characterised in terms of neutron spectrum and background photon dose[43]. […]
The T2-weighted MR images were acquired at 1 T with an Aspect M2-High Performance MRI System (Aspect Magnet Technologies Ltd., Netanya, Israel) consisting of a NdFeB magnet, equipped with a 35 mm solenoid Tx/Tr coil of inner diameter 35 mm. […] The tumour volume (mm^3) was calculated in the region of interest (ROI) manually drawn on the whole tumour by ITK-SNAP software. Tumour volume enhancement (%) was calculated according to the following equation: ((tumour volume (time = n) – tumour volume (time = 0)/tumour volume (time = 0)) × 100, where time = 0 indicates the day of the first CA-SF treatment and time = n indicates the days when mice were acquired by MRI.

For series [1], the system named is AB22 cells. Put plainly: MTT cell vitality assay. It is filed as cell-based, mouse. Conditions: normoxia. How it is done:
The MTT assay is based on the reduction in the mitochondria of metabolically active cells by succinate dehydrogenase obtaining a precipitation of purple formazan crystal. The assay was carried out using the same protocol reported by Azzi et al[42]. Briefly, AB22, ZL34 and MCF7 cells were seeded at a density of 7 × 10^3, 5 × 10^3 and 1 × 10^4 cells per well, respectively, in a 96-well microtiter plate. After 24 h at 37 °C and 5% CO2, they were incubated with increasing concentration of CA-SF or AZ for 24 h in a condition of normoxia at 37 °C and 5% CO2 by adding stock solutions in dimethyl sulfoxide (DMSO). In all the conditions the concentration of DMSO during the cell incubation was maintained under 0.25% (v/v) in cell medium. After the incubation, the medium was removed and each well was incubated with thiazolyl blue tetrazolium bromide (Sigma) dissolved in the medium at a concentration of 0.45 mg/mL for 4 h at 37 °C and 5% CO2. Then, after medium elimination, 150 µL of DMSO were added into each well to solubilise the formazan salt crystals produced by the metabolism of live cells and the microplate was incubated at room temperature (RT) for 30 min. Finally, absorbance was measured at 570 nm using an iMark microplate reader (Biorad). Cell vitality was reported as the percentage of […] cells observed in the treated samples relative to that observed in the non-treated control cells.
On the technique in general: Tetrazolium dyes change colour on reduction, which living cells bring about.

The subject of series [2] is AB22 cells. As to the kind of experiment: Proliferation assay of cells surviving irradiation. Conditions: AB22, 130 µM CA-SF before neutron irradiation. It is filed as cell-based, mouse. As for the experimental part: 75 flasks of MCF7 (4 flasks), ZL34 (4 flasks) and AB22 (4 flasks) were seeded at a density of 1.8 × 10^6 cells, 1.2 × 10^6 cells and 5.5 × 10^5 cells, respectively. 24 h later for MCF7 and ZL34 and 72 h later for AB22, 2 flasks of each cell lines were incubated for 24 h in the presence of 72 µM, 187.5 µM and 130 µM of CA-SF, respectively. After the incubation, cells were washed with PBS and their medium was renewed. Two flasks of MCF7, ZL34 and AB22 cells incubated with CA-SF and two flasks containing non-treated control cells were irradiated for 15′ at 30 kW reactor power in the thermal column of the TRIGA Mark II reactor at the University of Pavia, Italy. […]
Then, around 7 × 10^5 MCF7, 3.5 × 10^5 ZL34 and 1 × 10^5 AB22 cells from each differently treated flask were seeded in 10 cm diameter culture dishes. […] Then, cells were sonicated for 30 s at 30% power in ice and the total cell protein concentration (that is proportional to the number of cells) from cell lysates was determined by the Bradford method, using bovine serum albumin as a standard. The Cell Growth Rate was calculated as follows: Number of cellsti-Number of cellst0/Number of cellst0×100 for which Number of cells (ti) is the number of cells measured at the various time intervals and the number of cells (t0) is the number of cells at the starting point (t = 0) of the proliferation assay.

Series [3] can be described thus: Solubility in aqueous media. It is filed as physicochemical.

Turning to 1-Sulfonamidomethyl-o-carborane [CA-SF], the “tumour growth (MRI tumour volume) vs vehicle control mice” value in the series with AB22 mesothelioma tumour (CA-SF alone, not irradiated) was “significantly inhibits mice tumour growth”. For the same substance, in the series on AB22 mesothelioma tumour (neutron irradiation day 3, 15 min, 250 kW), the “tumour growth (MRI tumour volume), CA-SF + BNCT” value is recorded as “dramatic reduction of the mass of tumours”. The “cell vitality measured by MTT” value in the series on AB22 cells [1] (AB22, 130 µM CA-SF, 24 h, 37 °C) is “about 80%”. Besides, the “percentage of viable cells with increasing concentration (MTT)” value in the series on AB22 cells [1] (AB22, 24 h, Fig. 3) was “steadily decreases”. Further, the “proliferation rate of cells surviving to irradiation” value in the series with AB22 cells [2] is recorded as “marked inhibition of proliferation”. For the same substance, the “solubility in aqueous media” value in series [3] was “low”.
